A word on the IC50: it is the concentration needed to halve the response being measured.

This assay concerns HT-29 cells. Put plainly: Drug toxicity, cell viability 24 h. It is filed as cell-based. Particulars: Homo sapiens, HT-29, 24 h. On the procedure:
Cells were seeded in 12-, 24- or 96-well plates at proper cell density. For necroptosis or apoptosis assays, cells were incubated with the indicated compound combinations at concentrations stated for 14–24 h. Smac mimetic and z-VAD-FMK were added 30–60 min before treatment with TNF-α, FasL or TRAIL. Cell viability was determined using CellTiter Glo Luminescent Cell Viability Assay (Promega, Fitchburg, WI, USA) according to the manufacturer's instructions. Luminescence was recorded with a SpectraMax M5Multimode plate reader (Molecular Devices, Sunnyvale, CA, USA). For flow cytometry-based determination of viability, cells were harvested, collected by centrifugation, washed once and resuspended in staining buffer (1 × PBS, 10% FBS). Cells were incubated with 0.5 μg/ml PI for 10 min at room temperature (RT) in the dark. Flow cytometric analyses were performed on an LSR Fortessa (BD Biosciences) and analyzed with FlowJo software version 7.6.3 (Tree Star Inc, Ashland, OR, USA). Cell size was evaluated by forward scatter. PI-negative normal-sized cells were considered living and data were normalized to values of untreated controls.

Where two headings read alike, the source gives them in different places.

As to `Cc1ccc(C(=O)Nc2ccc(CN3CCN(C)CC3)c(C(F)(F)F)c2)cc1C#Cc1cnc2cccnn12` [ponatinib, Ponatinib], the IC50 worked out at 8.89 µM (read-out: IC50 (printed in Figure 2e)) and 8.9 µM (read-out: IC50 (toxicity)).
